The structures appear in SMILES notation.

A short description of this experiment: Binding affinity to Influenza A virus PA endonuclease I39T mutant assessed as dissociation constant by MST assay.
What is called Kd is the constant that tells how readily two partners part at equilibrium. Regarding `COc1cnccc1CCNC(=O)c1nc(-c2ccccc2C(F)(F)F)[nH]c(=O)c1O`, the dissociation constant (Kd) turned out to be 32 nM. With `O=C1c2c(O)c(=O)ccn2N([C@@H]2c3ccccc3SCc3c2ccc(F)c3F)C2COCCN12` (stereo partly drawn), the dissociation constant (Kd) was found to be 9300 nM.

Consider `Nc1ncnc2c1ncn2CCNC(=O)c1nc(-c2ccccc2C(F)(F)F)[nH]c(=O)c1O`, for which the Kd was determined as 16 nM.

Source of the values: ChEMBL document CHEMBL5331099, “Chemical scaffold recycling: Structure-guided conversion of an HIV integrase inhibitor into a potent influenza virus RNA-dependent RNA polymerase inhibitor designed to minimize resistance potential” (Eur J Med Chem, 2023).
